From patent US11779582B2, “Composition for preventing or treating metastatic ovarian cancer, endometrial cancer or breast cancer” (LEMONEX INC., priority 2017, dated 2023)

Key:
Format in all cases: cell-based
[1] = tested on: sphere cultured SKOV3ip1 ovarian cancer cells; experiment: crystal violet cell viability, 3D sphere culture
Method: For 3D sphere culture, SKOV3ip1 cells (1×10^6) were dispensed on ultra-low adherent 6-well plate (Corning NY, USA), and then, cultured in 5% CO2 incubator using RPMI 1640 medium supplemented with 10% fetal bovine serum (Gibco, NY, USA) and 10 U/ml penicillin/streptomycin (Gibco).
In order to assess the cell viability in the sphere cultured cells, the SKOV3ip1 cells (5×10^4) were dispensed on the super-low adherent 24-well plate and cultured overnight. The cells were harvested from each well and the commercial 24-well plate was moved, followed by further incubation for 12 hours. The adhered and visualized cells were stained with 0.2% crystal violet solution for 20 minutes while gently agitating the same. The stained cells were washed with distilled water until a clean background is observed. For assessment using a colorimeter, the crystal violet dye was extracted with 1% SDS/PBS and absorbance was measured at 570 nm wavelength by EMax PLUS microplate reader (Molecular Device, USA).
The monolayer cultured or sphere cultured SKOV3ip1 cells were treated with the tyrosine kinase inhibitor and paclitaxel for 72 hours, the cell viability was determined by the crystal violet colorimeter, and results thereof are shown in FIG. 3.
Since the cell survival of the sphere cultured SKOV3ip1 cells is inhibited by BGJ398 treatment, whether such cell survival inhibition is intermediated through JAK/STAT3 signaling pathway was further examined. For this purpose, the selective JAK tyrosine kinase inhibitor AG490 was used at different concentrations of 3.125 to 50 μM in order to treat the monolayer cultured or sphere cultured SKOV3ip1 cells, and after 72 hours, whether it affects the cell viability and AKT and STAT3 activation was examined through crystal violet staining and immunostaining assay, and results thereof are shown in FIG. 7. Actin was used as a loading control group.
Under this ground, when administering BGJ398 in combination with paclitaxel typically used as the existing primary anticancer drug for ovarian cancer, whether paclitaxel resistance of the sphere cultured cells is overcome and improved was determined.

[2] = tested on: AKT and STAT3 phosphorylation in sphere cultured SKOV3ip1 cells; experiment: immunostaining of AKT and STAT3 phosphorylation, sphere culture
Text: In order to identify whether a change in signaling pathways associated with cell survival appears or not according to 2D monolayer culture (2D MC) and 3D sphere culture (3D SC), immunostaining was implemented. More particularly, after culturing SKOV3ip1 cells (1×10^6) by 2D monolayer culture or 3D sphere culture described in section 1.1, expression of cell-signaling molecules including AKT, STAT3, p42/44 ERK and p38 MAPK was detected and activation states in the monolayer cultured cells and the sphere cultured cells were compared. The monolayer cultured or sphere cultured SKOV3ip1 cells were harvested and washed once with ice-cold 1× phosphate buffered saline, followed by dissolving the same in 100 μl ice-cold RIPA buffer (20 mM Tris-Cl, pH 8.0, 125 mM NaCl, […], 1 mM ethylene diamine tetraacetic acid, 1% Triton X-100, 0.5% sodium deoxycholate, 0.1% sodium dodecyl sulfate, 1× complete protease inhibitor cocktail (Roche, Mannheim, Germany)) on ice. After assessing the protein concentration using a Bradford Protein assay kit (Biorad, CA, USA), the same amount of proteins (30 μg) was separated by SDS-PAGE and moved to a nitrocellulose membrane, followed by immunostaining the same using a horseradish peroxide conjugated second antibody and a specific antibody. An immune activation band was detected with SuperSignal West Pico Chemiluminescent Substrate (Thermo, IL, USA) using a Fusion Solo chemiluminescence analyzer (Vilber Rourmat Marne la Vallee, France). Antibodies to STAT3 (H-190), STAT3 (B-7) phosphorylated at Tyr705 and actin (C-2) were purchased from Santa Cruz Biotechnology. Rabbit monoclonal antibodies on AKT, AKT (D9E) phosphorylated at Ser473, FGFR1 phosphorylated at Tyr 653/654, p42/44 MAPK, phosphorylated p42/44 MAPK, p38 MAPK and p38 MAPK phosphorylated at Tyr 180/182 were purchased from Cell Signaling Technology (MA, USA). Further, HRP-conjugated goat anti-mouse and rabbit secondary antibodies were purchased from Jackson Laboratories, while BGJ398 used in the experiment (against FGFR1/2/3) was purchased from Selleckchem (USA).
Under this ground, in order to determine whether BGJ398 can vary the state of AKT and STAT3 in the sphere cultured SKOV3ip1 cells, the monolayer cultured (MC) or sphere cultured (SC) SKOV3ip1 cells were subjected to treatment using 5 μM BGJ398, followed by examining the degree of phosphorylation due to the above treatment.
Further, the sphere cultured SKOV3ip1 cells were treated with 5 μM BGJ398 (BGJ), 3 μM TAE648 (TAE) and 5 μM imatinib (IMT), respectively. After 72 hours, a cell lysate was obtained and subjected to immunostaining, followed by analyzing active cellular expression of AKT and STAT3 with the antibody for the same. Further, a phosphorylation level of FGFR1 was used as a positive control group relative to BGJ treatment groups while actin was used as a loading control group. The immunostaining assay procedure was implemented in the same manner as in Example 1.
Since the cell survival of the sphere cultured SKOV3ip1 cells is inhibited by BGJ398 treatment, whether such cell survival inhibition is intermediated through JAK/STAT3 signaling pathway was further examined. […]

[3] = tested on: cleaved PARP in SKOV3-TR ovarian cancer cells; experiment: cleaved PARP immunostaining; conditions: BGJ398 in combination with paclitaxel (FIGS. 24 and 25)
Text: In order to identify whether a change in signaling pathways associated with cell survival appears or not according to 2D monolayer culture (2D MC) and 3D sphere culture (3D SC), immunostaining was implemented. More particularly, after culturing SKOV3ip1 cells (1×10^6) by 2D monolayer culture or 3D sphere culture described in section 1.1, expression of cell-signaling molecules including AKT, STAT3, p42/44 ERK and p38 MAPK was detected and activation states in the monolayer cultured cells and the sphere cultured cells were compared. […] An immune activation band was detected with SuperSignal West Pico Chemiluminescent Substrate (Thermo, IL, USA) using a Fusion Solo chemiluminescence analyzer (Vilber Rourmat Marne la Vallee, France). […]
FIGS. 24 and 25 illustrate expression of cleaved PARP and actin upon administration of paclitaxel alone, BGJ398 alone or in combination with paclitaxel to SKOV3-TR ovarian cancer cells, which was determined by the immunostaining method described above.

[4] = tested on: AKT phosphorylation and PARP cleavage in SKOV3-TR ovarian cancer cells; experiment: PathScan Intracellular Signaling Array Kit; conditions: BGJ398 in combination with paclitaxel (FIG. 26)
[5] = tested on: phosphorylated AKT and XIAP in SKOV3-TR ovarian cancer cells; experiment: immunostaining of AKT down-signal mechanism; conditions: BGJ398 treatment, paclitaxel alone or in combination with BGJ398 (FIG. 27)
Method: FIG. 27 illustrates results of identifying whether there is expression of AKT, phosphorylated AKT, BAD, phosphorylated BAD, XIAP, CASP9, p42/44 and/or phosphorylated p42/44, in order to determine AKT down-signal mechanism in relation to cell survival and cell apoptosis in the cells when paclitaxel alone or in combination with BGJ398 was administered to SKOV3-TR ovarian cancer cells. […] The reason of this fact is considered because a level of XIAP expression in the cells is decreased thus to improve paclitaxel sensitivity.

CCN1CCN(c2ccc(Nc3cc(N(C)C(=O)Nc4c(Cl)c(OC)cc(OC)c4Cl)ncn3)cc2)CC1 [BGJ398, 3-(2,6-dichloro-3,5-dimethoxyphenyl)-1-[6-[4-(4-ethylpiperazin-1yl)anilino]pyrimidin-4-yl]-1-methylurea]
paclitaxel sensitivity ([1]; 3D cultured SKOV3ip1, 1.25 and 5 μM BGJ398 with paclitaxel vs BGJ398 untreated group): increased paclitaxel sensitivity in a dose-dependent manner | cytotoxicity ([1]; 3D sphere cultured SKOV3ip1, 1 μM BGJ398, Day 3): showed cytotoxicity | cell viability ([1]; sphere cultured SKOV3ip1, 72 hours, different concentrations, crystal violet colorimeter (FIG. 3)): reduced the cell viability in a dose-dependent manner | cell apoptosis ([1]; sphere cultured SKOV3ip1, paclitaxel in combination with BGJ398 vs paclitaxel alone, 72 hours (FIG. 8)): higher cell apoptosis than the cells treated with paclitaxel alone | AKT and STAT3 phosphorylation ([2]; sphere cultured SKOV3ip1, 5 μM BGJ398 (FIG. 6), AG490, 72 hours (FIG. 7B)): suppressed again | phosphorylated AKT at Ser473 ([2]; sphere cultured, 5 μM BGJ398, 3 μM TAE648, 5 μM imatinib, 72 hours (FIG. 6)): inhibits phosphorylated AKT at Ser473 residue | expression of cleaved PARP and actin [3]: increased in concentration- and time-dependent manners | cleaved PARP [4]: increasing the cleaved PARP | phosphorylation of AKT at serine 473 [4]: phosphoylation of AKT at serine 473 is reduced | XIAP expression [5]: XIAP expression is reduced | level of phosphorylated AKT [5]: significantly decreased
